For this assay, the target named is T1, human CRHR2-alpha (Homo sapiens, UniProt Q13324).
T1 construct: host or cells: CHO-K1
T1 sequence (Q13324 1-411): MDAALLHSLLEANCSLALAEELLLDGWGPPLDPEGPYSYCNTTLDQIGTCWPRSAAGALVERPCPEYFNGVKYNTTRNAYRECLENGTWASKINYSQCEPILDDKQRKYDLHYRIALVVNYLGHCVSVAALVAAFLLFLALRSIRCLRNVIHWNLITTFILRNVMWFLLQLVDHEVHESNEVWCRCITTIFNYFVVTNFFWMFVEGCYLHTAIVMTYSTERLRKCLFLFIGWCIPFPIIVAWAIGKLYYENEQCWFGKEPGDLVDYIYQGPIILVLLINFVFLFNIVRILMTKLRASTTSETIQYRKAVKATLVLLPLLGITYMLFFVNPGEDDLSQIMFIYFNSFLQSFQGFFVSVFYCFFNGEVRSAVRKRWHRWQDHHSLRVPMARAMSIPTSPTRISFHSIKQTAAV
Nature of the assay: cAMP functional assay for human CRHR2 (LANCE Ultra TR-FRET). The following applies: inhibition of cAMP production in CHO-K1 cells stably expressing human CRHR2-alpha, EC90 of human urocortin2 as agonist; read-out: IC50 against CRHR2. Format: cell-based. The procedure:
cAMP functional assay for human CRHR2 The ability of the compounds of this invention to inhibit either CRHR2 is assessed by 3′,5′-cyclic adenosine monophosphate (cAMP) production in cells using the LANCE Ultra cAMP assay kit (ParkinElmer), which are designed based on the homogeneous time-resolved fluorescence resonance energy transfer (TR-FRET) immunoassay.
CHO-K1 (Chinese hamster ovary) cells stably expressing human CRHR2-alpha (DiscoveRX, Cat. 95-0048C2) are grown in HAM's F12 media supplemented with 10% fetal bovine serum (FBS), 100 units/mL penicillin G, 100 microg/mL hygromycin and 0.5 microg/mL geneticin at 37° C. in 5% CO2 humidified incubator to 80% confluence. After 7 hours starvation treatment in culture media containing 0.1% FBS, the cells are washed with Hanks balanced salt solution (HBSS) and cryopreserved.
For cAMP assay, frozen cells are thawed and washed with HBSS, followed by resuspending cells in assay buffer (HBSS containing 0.1% bovine serum albumin, 0.5 mM isobutylmethylxanthine and 5 mM Hepes, pH 7.4) at the appropriate concentration for the assay. The cell suspensions are plated on 384-well microplates (Greiner Bio-One) at a density of 4,000 cells per well. After preincubating the cells with various concentrations of the compounds for 30 min at 25° C., an assay buffer containing EC90 concentration of agonist is added and the cells are incubated for 30 min at 25° C. Human urocortin2 (Peptide Institute) is used as agonists for CRHR2. For the termination of assay, europium-labeled cAMP tracer and ULight (registered trademark) dye labeled cAMP antibodies, both prepared with Lance-Ultra cAMP detection reagent (PerkinElmer) are added in the plate and incubate for 60 min at 25° C. After incubation, TR-FRET signal is detected by EnVision plate reader (PerkinElmer). The IC50 values for compounds are calculated from dose-response curves by fitting the percent inhibition using XLfit (ID Business Solutions).
(In general: Time-resolved FRET reads energy transfer from a long-lived donor to a nearby acceptor.)

One may read the IC50 as the concentration at which inhibition is half-maximal.

As for `O=C(N[C@H]1CC[C@H](CN2C(=O)C(O)(c3ccccc3F)c3cccc(F)c32)CC1)c1cc(Cl)cnc1C(F)F` (mixture of isomers) [Example 82, 5-chloro-2-(difluoromethyl)-N-((1r,4r)-4-((7-fluoro-3-(2-fluorophenyl)-3-hydroxy-2-oxoindolin-1-yl)methyl)cyclohexyl) nicotinamide], the IC50 is less than 200 nM. The value for `COc1ccc(C2(O)C(=O)N(C[C@H]3CC[C@H](NC(=O)c4cc(Cl)cnc4C(F)F)CC3)c3ccccc32)cc1` (some centres unmarked) [Example 2, 5-chloro-2-(difluoromethyl)-N-((1r,4r)-4-((3-hydroxy-3-(4-methoxyphenyl)-2-oxoindolin-1-yl)methyl)cyclohexyl) nicotinamide] was less than 200 nM. For `O=C(N[C@H]1CC[C@H](CN2C(=O)C(O)(c3ccccc3)c3ccccc32)CC1)c1cc(Cl)cnc1C(F)F` (some centres unmarked) [Example 3, 5-chloro-2-(difluoromethyl)-N-((1r,4r)-4-((3-hydroxy-2-oxo-3-phenylindolin-1-yl)methyl)cyclohexyl) nicotinamide], the IC50 was less than 200 nM. As for `O=C(N[C@H]1CC[C@H](CN2C(=O)C(O)(c3ccncc3F)c3ccccc32)CC1)c1cc(Cl)cnc1C(F)F` (some centres unmarked) [Example 10, 5-chloro-2-(difluoromethyl)-N-((1r,4r)-4-((3-(3-fluoropyridin-4-yl)-3-hydroxy-2-oxoindolin-1-yl)methyl)cyclohexyl) nicotinamide], the IC50 was less than 200 nM. Regarding `O=C(N[C@H]1CC[C@H](CN2C(=O)C(O)(c3ccc(Cl)cn3)c3ccccc32)CC1)c1cc(Cl)cnc1C(F)F` (some centres unmarked) [Example 13, 5-chloro-N-((1r,4r)-4-((3-(5-chloropyridin-2-yl)-3-hydroxy-2-oxoindolin-1-yl)methyl)cyclohexyl)-2-(difluoromethyl)nicotinamide], the IC50 is less than 200 nM. Take `O=C(N[C@H]1CC[C@H](CN2C(=O)C(O)(c3ccc(F)cc3)c3ccccc32)CC1)c1cc(Cl)cnc1C(F)F` (some centres unmarked) [Example 17, 5-chloro-2-(difluoromethyl)-N-((1r,4r)-4-((3-(4-fluorophenyl)-3-hydroxy-2-oxoindolin-1-yl)methyl)cyclohexyl) nicotinamide]: the IC50 was less than 200 nM. Turning to `O=C(N[C@H]1CC[C@H](CN2C(=O)C(O)(c3ccc(F)cn3)c3ccccc32)CC1)c1cc(Cl)cnc1C(F)F` (some centres unmarked) [Example 18, 5-chloro-2-(difluoromethyl)-N-((1r,4r)-4-((3-(5-fluoropyridin-2-yl)-3-hydroxy-2-oxoindolin-1-yl)methyl)cyclohexyl) nicotinamide], the concentration for half-maximal inhibition (IC50) is less than 200 nM. In the case of `O=C(N[C@H]1CC[C@H](CN2C(=O)C(O)(c3cccc(F)c3)c3ccccc32)CC1)c1cc(Cl)cnc1C(F)F` (some centres unmarked) [Example 20, 5-chloro-2-(difluoromethyl)-N-((1r,4r)-4-((3-(3-fluorophenyl)-3-hydroxy-2-oxoindolin-1-yl)methyl)cyclohexyl) nicotinamide], the IC50 is less than 200 nM. For `COc1cc(C2(O)C(=O)N(C[C@H]3CC[C@H](NC(=O)c4cc(Cl)cnc4C(F)F)CC3)c3ccccc32)c(F)cn1` (some centres unmarked) [Example 27, 5-chloro-2-(difluoromethyl)-N-((1r,4r)-4-((3-(5-fluoro-2-methoxypyridin-4-yl)-3-hydroxy-2-oxoindolin-1-yl)methyl)cyclohexyl) nicotinamide], the IC50 is less than 200 nM.

In the case of `O=C(N[C@H]1CC[C@H](CN2C(=O)C(O)(c3ccccc3)c3ccc(Cl)cc32)CC1)c1cc(Cl)cnc1C(F)F` (some centres unmarked) [Example 30, 5-chloro-N-((1r,4r)-4-((6-chloro-3-hydroxy-2-oxo-3-phenylindolin-1-yl)methyl)cyclohexyl)-2-(difluoromethyl)nicotinamide], the IC50 is less than 200 nM. For `O=C(N[C@H]1CC[C@H](CN2C(=O)C(O)(c3ccccc3F)c3ccccc32)CC1)c1cc(Cl)cnc1C(F)F` (some centres unmarked) [Example 33, 5-chloro-2-(difluoromethyl)-N-((1r,4r)-4-((3-(2-fluorophenyl)-3-hydroxy-2-oxoindolin-1-yl)methyl)cyclohexyl) nicotinamide], the IC50 was less than 200 nM.

The values are drawn from patent US12421191B2, “3-hydroxyoxindole derivatives as CRHR2 antagonist” (RaQualia Pharma Inc., priority 2020, dated 2025).
